Source: patent publication CN116559458A, “基于protac蛋白靶向降解技术的活性天然产物靶点鉴定方法及protac化合物” (Shenyang Pharmaceutical University, priority 2022, dated 2023)

Columns and labels:
[1] = test system: LPS-stimulated mouse macrophage RAW264.7 cells (小鼠巨噬细胞RAW264.7细胞); details: LPS-stimulated RAW264.7; earlier study of the applicant's group; read-out: IC50 (inhibition of NO production); cited from earlier work
[2] = molecular target: T1, MAFF protein (MAFF蛋白) (Mus musculus, UniProt O54791); assay: CETSA in RAW264.7 cells; assay type: cell-based; details: 40 μM, 4 h; 64-72 ℃
T1 construct: endogenous in cells; host or cells: RAW264.7

[3] = molecular target: MAFF protein (MAFF蛋白) (Homo sapiens, UniProt Q9ULX9); assay: Microscale thermophoresis (MST); assay type: binding
[4] = test system: LPS-stimulated mouse macrophage RAW264.7 cells, NO production (小鼠巨噬细胞RAW264.7细胞, 一氧化氮(NO)生成); assay: Griess assay of NO production in LPS-stimulated RAW264.7 cells; assay type: cell-based
[5] = molecular target: T2, MAFF (Mus musculus, UniProt O54791); assay: DARTS in RAW264.7 lysate; assay type: binding; details: 10, 20 and 40 μM; Pronase 1:1000, 37 ℃ 15 min
T2 construct: endogenous in cells; host or cells: RAW264.7
T2 sequence (O54791 whole entry): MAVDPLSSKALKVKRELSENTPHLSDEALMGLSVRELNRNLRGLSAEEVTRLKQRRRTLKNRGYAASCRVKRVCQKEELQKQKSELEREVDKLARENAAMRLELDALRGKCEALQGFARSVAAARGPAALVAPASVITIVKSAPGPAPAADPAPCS

T1 sequence (O54791 whole entry): as above
Chain of MAFF protein (MAFF蛋白) (Homo sapiens, UniProt Q9ULX9) (Q9ULX9 whole entry, species assumed): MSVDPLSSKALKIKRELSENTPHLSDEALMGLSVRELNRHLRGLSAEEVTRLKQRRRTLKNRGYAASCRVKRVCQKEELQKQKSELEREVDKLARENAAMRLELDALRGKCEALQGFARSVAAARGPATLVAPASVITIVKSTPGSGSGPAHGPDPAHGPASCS

**Q.** For C=C1CC[C@H]2[C@@H](/C=C(\C)C(=O)[C@@]3(OC(C)=O)C[C@H](C)[C@H](OC(=O)/C=C/c4ccccc4)[C@@H]3[C@H]1O)C2(C)C [2S,3S,4S,5R,9S,11R,15R)-15-acetoxy-3-cinnamoyloxy-5-hydroxy-14-oxolathyra-6(17),12E-diene], which IC50 [1] is on record?
**A.** The IC50 was 3000 ± 1100 nM.

**Q.** With C=C1CC[C@H]2[C@@H](/C=C(\C)C(=O)[C@@]3(O)C[C@H](C)[C@H](O)[C@@H]3[C@H]1O)C2(C)C [Lathyrol] as the compound, how does the “thermal stability of MAFF protein” value [2] read?
**A.** Its value is “提高了MAFF蛋白的热稳定性”.

**Q.** What about the Kd [3] of the same compound?
**A.** The Kd was 20.9 ± 2.34 µM.

**Q.** What about the IC50 ([4]; Mus musculus, RAW264.7, read-out: IC50 (inhibition of NO production)) of the same compound?
**A.** Its IC50 is 11.1 ± 1.14 µM.

**Q.** And the “inhibition of LPS-stimulated NO production (in words)” value ([4]; RAW264.7, compound 3 h, then LPS 1 μg/mL 24 h)?
**A.** Its value is “良好的抑制作用”.

**Q.** And the “degradation of MAFF by Pronase” value [5]?
**A.** Its value is “降解程度显著降低”.
